Measured values as given in patent US20260216176A1, “USE OF PCLX-001 OR PCLX-002 AS A RADIOSENSITIZER” (ACYLEX PHARMACEUTICALS INC., priority 2023, published 2026).
Where two headings read alike, the source gives them in different places.

Assay: Plasma pharmacokinetics in phase I clinical trial NCT04836195 (oral daily dose)
Type: in vivo, human
Details: for AUC(0-t) / Cmax / Tmax / half-life: human, plasma; for AUC(0-t): read-out: AUC0-24 (mean, SD); for Cmax: read-out: Cmax (mean, SD)
Procedure: A phase I, multicenter, nonrandomized, open-label study of zelenirstat, entitled “Phase I Trial of PCLX-001 in B-cell Non-Hodgkin Lymphoma and Advanced Solid Malignancies” (reference 6), is being conducted and is registered at clinicaltrials.gov as NCT04836195. In this study, PCLX-001 was administered as an oral daily dose every morning to patients with advanced cancer, on 28-day cycles, until toxicity or progressive disease. Peripheral blood samples were collected over six time points in the first 8 hours of cycle 1 day 1, and again on cycle 1 day 15, with pretreatment day 1 levels obtained with every subsequent cycle. PCLX-001/zelenirstat plasma concentrations were quantified using a validated ultra-performance liquid chromatography with tandem mass spectrometry detection and analyzed using a nonlinear mixed-effects model.

[1] = oral, 20 mg, 20 mg, Cycle 1 D15
[2] = oral, 40 mg, 40 mg, Cycle 1 D15
[3] = oral, 70 mg, 70 mg, Cycle 1 D15
[4] = oral, 100 mg, 100 mg, Cycle 1 D1
[5] = oral, 100 mg, 100 mg, Cycle 1 D15
[6] = oral, 140 mg, 140 mg, Cycle 1 D1
[7] = oral, 140 mg, 140 mg, Cycle 1 D15
[8] = oral, 210 mg, 210 mg, Cycle 1 D1
[9] = oral, 210 mg, 210 mg, Cycle 1 D15

Cc1c(N[S+](=O)(O)c2c(Cl)cc(-c3ccnc(N4CCNCC4)c3)cc2Cl)c(CC(C)C)nn1C [PCLX-001]
AUC(0-t) (oral, 20 mg, 20 mg, Cycle 1 D1): 1580 ng·h/mL
Cmax (oral, 20 mg, 20 mg, Cycle 1 D1): 276 ng/mL
Tmax (oral, 20 mg, 20 mg, Cycle 1 D1, read-out: Tmax (median, range)): 2 h
half-life (oral, 20 mg, 20 mg, Cycle 1 D1, read-out: t½ (mean, SD) (converted)): 6.7 h
AUC(0-t) [1]: 2070 ng·h/mL
Cmax [1]: 359 ng/mL
Tmax (oral, 20 mg, 20 mg, Cycle 1 D15, read-out: Tmax (median, range)): 1 h
half-life (oral, 20 mg, 20 mg, Cycle 1 D15, read-out: t½ (mean, SD) (converted)): 7.4 h
AUC(0-t) (oral, 40 mg, 40 mg, Cycle 1 D1): 4820 ng·h/mL
Cmax (oral, 40 mg, 40 mg, Cycle 1 D1): 848 ng/mL
Tmax (oral, 40 mg, 40 mg, Cycle 1 D1, read-out: Tmax (median, range)): 0.9 h
half-life (oral, 40 mg, 40 mg, Cycle 1 D1, read-out: t½ (mean, SD) (converted)): 9.2 h
AUC(0-t) [2]: 7060 ng·h/mL
Cmax [2]: 774 ng/mL
Tmax (oral, 40 mg, 40 mg, Cycle 1 D15, read-out: Tmax (median, range)): 2.2 h
half-life (oral, 40 mg, 40 mg, Cycle 1 D15, read-out: t½ (mean, SD) (converted)): 9.7 h
AUC(0-t) (oral, 70 mg, 70 mg, Cycle 1 D1): 5650 ng·h/mL
Cmax (oral, 70 mg, 70 mg, Cycle 1 D1): 665 ng/mL
Tmax (oral, 70 mg, 70 mg, Cycle 1 D1, read-out: Tmax (median, range)): 3.9 h
half-life (oral, 70 mg, 70 mg, Cycle 1 D1, read-out: t½ (mean, SD) (converted)): 9.5 h
AUC(0-t) [3]: 6610 ng·h/mL
Cmax [3]: 467 ng/mL
Tmax (oral, 70 mg, 70 mg, Cycle 1 D15, read-out: Tmax (median, range)): 4.1 h
AUC(0-t) [4]: 18900 ng·h/mL
Cmax [4]: 2190 ng/mL
Tmax (oral, 100 mg, 100 mg, Cycle 1 D1, read-out: Tmax (median, range)): 2 h
half-life (oral, 100 mg, 100 mg, Cycle 1 D1, read-out: t½ (mean, SD) (converted)): 8 h
AUC(0-t) [5]: 24700 ng·h/mL
Cmax [5]: 2300 ng/mL
Tmax (oral, 100 mg, 100 mg, Cycle 1 D15, read-out: Tmax (median, range)): 4 h
half-life (oral, 100 mg, 100 mg, Cycle 1 D15, read-out: t½ (mean, SD) (converted)): 12 h
AUC(0-t) [6]: 11900 ng·h/mL
Cmax [6]: 1770 ng/mL
Tmax (oral, 140 mg, 140 mg, Cycle 1 D1, read-out: Tmax (median, range)): 1 h
half-life (oral, 140 mg, 140 mg, Cycle 1 D1, read-out: t½ (mean, SD) (converted)): 7.2 h
AUC(0-t) [7]: 8150 ng·h/mL
Cmax [7]: 1340 ng/mL
Tmax (oral, 140 mg, 140 mg, Cycle 1 D15, read-out: Tmax (median, range)): 2 h
half-life (oral, 140 mg, 140 mg, Cycle 1 D15, read-out: t½ (mean, SD) (converted)): 10.4 h
AUC(0-t) [8]: 14700 ng·h/mL
Cmax [8]: 1770 ng/mL
Tmax (oral, 210 mg, 210 mg, Cycle 1 D1, read-out: Tmax (median, range)): 3 h
half-life (oral, 210 mg, 210 mg, Cycle 1 D1, read-out: t½ (mean, SD) (converted)): 7.8 h
AUC(0-t) [9]: 27600 ng·h/mL
Cmax [9]: 2940 ng/mL
Tmax (oral, 210 mg, 210 mg, Cycle 1 D15, read-out: Tmax (median, range)): 2 h
half-life (oral, 210 mg, 210 mg, Cycle 1 D15, read-out: t½ (mean, SD) (converted)): 7.7 h
Tmax (oral, patients taking proton pump inhibitors (PPI), read-out: maximum Tmax value observed): ~8 h
Tmax (oral, patients taking proton pump inhibitors (PPI), read-out: median Tmax range): 1 to 6 h
half-life (oral, C1D1, read-out: mean terminal half-life across the dose cohorts): 6.7 to 9.5 h
Tmax (po, single oral 20 mg to 210 mg, C1D1, read-out: median Tmax values across the dose cohorts): 1 to 4 h
accumulation following repeated administration (majority of patients, 14 days): < 2 fold
accumulation beyond Day 15 (pre-dose concentrations over multiple cycles): no accumulation was apparent
